# Reference: ChEMBL document CHEMBL1201862, “PubChem BioAssay data set” (2004)
# The source made the active and inactive calls.
# How the values were obtained:
# X-box-binding protein 1 = target: T1, X-box-binding protein 1 (Homo sapiens, UniProt P17861); assay type: functional, Cricetulus griseus;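 further: confirmatory dose-response counter-screen serving a CHOP assay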
# T1 sequence (P17861 whole entry): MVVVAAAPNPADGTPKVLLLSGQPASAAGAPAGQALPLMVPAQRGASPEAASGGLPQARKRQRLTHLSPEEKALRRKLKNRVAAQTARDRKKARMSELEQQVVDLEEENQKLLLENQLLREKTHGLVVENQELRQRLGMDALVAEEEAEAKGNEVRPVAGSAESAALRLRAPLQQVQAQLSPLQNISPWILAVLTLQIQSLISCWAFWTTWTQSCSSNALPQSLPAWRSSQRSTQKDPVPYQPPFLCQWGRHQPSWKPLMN
# Cytochrome P450 1A2 = target: T2, Cytochrome P450 1A2 (Homo sapiens, UniProt P05177);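 further: PubChem cytochrome P450 panel assay, CYP1A2 panel member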
# T2 sequence (P05177 whole entry): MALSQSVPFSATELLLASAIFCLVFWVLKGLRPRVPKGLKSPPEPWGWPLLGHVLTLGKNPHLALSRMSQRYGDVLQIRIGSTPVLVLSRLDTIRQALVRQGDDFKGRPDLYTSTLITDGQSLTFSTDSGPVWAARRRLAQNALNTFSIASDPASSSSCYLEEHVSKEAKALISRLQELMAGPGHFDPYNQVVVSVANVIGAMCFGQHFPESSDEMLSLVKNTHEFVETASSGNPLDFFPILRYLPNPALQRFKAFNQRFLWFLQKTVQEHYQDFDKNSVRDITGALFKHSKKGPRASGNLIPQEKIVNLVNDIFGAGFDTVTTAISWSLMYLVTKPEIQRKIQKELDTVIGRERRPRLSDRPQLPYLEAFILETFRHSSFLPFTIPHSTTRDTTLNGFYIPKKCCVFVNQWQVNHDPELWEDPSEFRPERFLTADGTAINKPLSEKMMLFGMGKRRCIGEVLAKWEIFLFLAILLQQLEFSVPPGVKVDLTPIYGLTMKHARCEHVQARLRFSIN
# Cytochrome P450 2C9 = Cytochrome P450 2C9 (Homo sapiens, UniProt P11712)
# [1] = target: DNA damage-inducible transcript 3 protein (Mus musculus, UniProt P35639); assay type: functional, Cricetulus griseus
# [2] = target: T3, Female germline-specific tumor suppressor gld-1 (Caenorhabditis elegans, UniProt Q17339); test: blockers of GLD-1/TGE RNA complex formation – biochemical, fluorescence polarization, C. elegans, dose response (AID 2802);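 further: fluorescence polarization of labeled TGE RNA bound by purified gld-1 protein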
# T3 sequence (Q17339 whole entry): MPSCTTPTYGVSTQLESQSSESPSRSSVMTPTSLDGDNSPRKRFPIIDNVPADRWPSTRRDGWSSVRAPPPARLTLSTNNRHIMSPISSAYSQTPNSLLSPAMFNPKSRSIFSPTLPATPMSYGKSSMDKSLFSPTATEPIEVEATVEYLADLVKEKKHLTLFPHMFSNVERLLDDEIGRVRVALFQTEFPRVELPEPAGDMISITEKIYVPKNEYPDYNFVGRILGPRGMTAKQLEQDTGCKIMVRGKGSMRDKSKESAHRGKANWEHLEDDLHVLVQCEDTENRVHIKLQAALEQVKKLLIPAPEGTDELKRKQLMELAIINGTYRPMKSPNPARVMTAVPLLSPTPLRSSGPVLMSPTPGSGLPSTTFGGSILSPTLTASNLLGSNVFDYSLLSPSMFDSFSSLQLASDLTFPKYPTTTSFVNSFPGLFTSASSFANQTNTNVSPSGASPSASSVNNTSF
# [3] = target: T4, Polyadenylate-binding protein 1 (Homo sapiens, UniProt P11940); test: MLLE binding blockers, Cy5 peptide tracer – biochemical, fluorescence polarization, Cy5-PAM2 peptide, secondary, miRNA deadenylation inhibitor project, dose response (AID 602260); assay type: functional; conditions: read-out: IC50_Mean
# Protein Rev = target: T5, Protein Rev (Human immunodeficiency virus type 1 group M subtype B (isolate HXB2)(HIV-1), UniProt P04618); test: blockers of HIV Rev/RRE RNA complex – biochemical, fluorescence polarization, HIV-1, dose response (AID 434976); set-up: species or system Human immunodeficiency virus 1
# T5 sequence (P04618 whole entry): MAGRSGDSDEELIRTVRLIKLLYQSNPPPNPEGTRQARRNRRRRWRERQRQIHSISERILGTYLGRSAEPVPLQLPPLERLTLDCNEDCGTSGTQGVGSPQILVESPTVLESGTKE
# [4] = target: T4, Polyadenylate-binding protein 1; test: MLLE domain peptide-binding blockers, IC50 – biochemical, fluorescence polarization, FITC-PAM2 peptide, dose response (AID 602259); assay type: functional; conditions: read-out: IC50_Mean
# HEK293 [5] = test: cells; assay type: functional, cell-based; conditions: Homo sapiens
# HEK293 [6] = test: inhibition of NOD1-driven NF-kB reporter – cell-based, luminescence, uHTS, primary screen (AID 1578); assay type: functional; conditions: Homo sapiens
# [7] = target: Nucleotide-binding oligomerization domain-containing protein 2 (Homo sapiens, UniProt Q9HC29); test: inhibition of NOD2-driven NF-kB reporter – cell-based, luminescence, uHTS, HEK293 (AID 1566); assay type: functional
# HEK293 [8] = test: NOD2 signaling inhibitors in MDP-stimulated cells, cell-based, uHTS, luminescence (AID 2001); assay type: functional; conditions: Homo sapiens
# HEK293 [9] = test: cells; assay type: functional, cell-based; conditions: Homo sapiens; remark: listed apart in the source
# HEK293 [10] = test: cells; assay type: functional, cell-based; conditions: Homo sapiens; remark: listed apart in the source
# [11] = target: T6, Calpain-2 catalytic subunit (Sus scrofa, UniProt P43367); test: m-calpain protease blockers, concentration series – biochemical, fluorogenic peptide substrate, dose response (AID 1420); assay type: functional
# T6 sequence (P43367 whole entry): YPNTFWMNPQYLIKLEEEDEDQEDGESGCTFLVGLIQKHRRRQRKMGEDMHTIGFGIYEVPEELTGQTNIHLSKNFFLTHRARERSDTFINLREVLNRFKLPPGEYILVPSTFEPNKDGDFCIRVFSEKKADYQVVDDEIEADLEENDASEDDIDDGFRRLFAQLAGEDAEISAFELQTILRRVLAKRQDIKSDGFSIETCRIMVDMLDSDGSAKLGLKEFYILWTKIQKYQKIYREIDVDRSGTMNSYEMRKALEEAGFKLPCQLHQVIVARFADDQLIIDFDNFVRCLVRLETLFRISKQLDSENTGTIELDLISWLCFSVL
# [12] = Luminescence Cell-Based Dose Retest to Confirm Inhibitors of Cancer Stem Cells. [Related pubchem assays (depositor defined):AID2717, AID2721]; assay type: functional; conditions: Homo sapiens
# INS1 = test: INS-1E survival protection against cytokine death – cell-based, luminescence, retest, dose response (AID 449756); assay type: functional; conditions: Rattus norvegicus;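 further: cell death triggered by IL-1 beta plus TNF-alpha plus IFN-gamma mixture; protective hits raise ATP signal compared with cytokine alone wells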
# Streptokinase A = target: T7, Streptokinase A (Streptococcus pyogenes serotype M1, UniProt P10520); test: viability-normalized secreted streptokinase activity reduction – plasminogen activation absorbance, OD405, dose response (AID 1914); assay type: functional, Streptococcus pyogenes M1 GAS;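 further: secreted streptokinase activity via plasminogen activation per viability signal from cell pellet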
# T7 sequence (P10520 whole entry): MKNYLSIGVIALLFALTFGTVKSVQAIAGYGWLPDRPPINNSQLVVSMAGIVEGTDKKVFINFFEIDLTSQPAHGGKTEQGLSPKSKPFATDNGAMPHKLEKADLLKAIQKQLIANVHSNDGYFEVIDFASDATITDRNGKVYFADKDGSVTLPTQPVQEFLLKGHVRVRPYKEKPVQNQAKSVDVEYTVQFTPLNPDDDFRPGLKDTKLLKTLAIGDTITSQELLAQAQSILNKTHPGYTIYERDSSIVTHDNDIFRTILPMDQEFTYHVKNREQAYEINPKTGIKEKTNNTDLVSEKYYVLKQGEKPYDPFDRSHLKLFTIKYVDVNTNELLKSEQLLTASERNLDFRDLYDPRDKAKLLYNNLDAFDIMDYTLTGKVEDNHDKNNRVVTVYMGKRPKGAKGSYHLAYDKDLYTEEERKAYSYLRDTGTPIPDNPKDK
# [13] = system: Streptococcus sp. 'group A'; test: Streptococcus pyogenes SK(-)GAS viability under kanamycin – luminescence, BacTiterGlo, confirmation, counter-screen for streptokinase expression inhibitor project, dose response (AID 1900); assay type: functional, organism-based
# Streptococcus = test: GAS UMAA2166 growth inhibition – luminescence, BacTiterGlo, counter-screen for streptokinase expression inhibitor project, dose response (AID 1915); assay type: functional, organism-based;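 further: potency for reduction of bacterial viability or growth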
# [14] = microbe, parasite or virus in culture; assay type: functional; conditions: Mycobacterium tuberculosis
# [15] = target: T8, Kappa-type opioid receptor (Homo sapiens, UniProt P41145); assay type: functional
# Beta-galactosidase = Beta-galactosidase (Escherichia coli, UniProt Q8VNN2); assay type: functional
# [16] = target: Heat shock protein HSP 90-alpha (Homo sapiens, UniProt P07900); assay type: functional, organism-based
# [17] = target: T8, Kappa-type opioid receptor; assay type: functional; remark: listed apart in the source
# [18] = target: T9, Corticotropin-releasing factor receptor 2/Corticotropin-releasing factor-binding protein (Homo sapiens, UniProt P24387+Q13324); test: Dose Response confirmation of uHTS hits for small molecule antagonists of the CRF-binding protein and CRF-R2 receptor complex.; assay type: functional; conditions: read-out: IC50_Mean
# T9 sequence (Q13324 whole entry): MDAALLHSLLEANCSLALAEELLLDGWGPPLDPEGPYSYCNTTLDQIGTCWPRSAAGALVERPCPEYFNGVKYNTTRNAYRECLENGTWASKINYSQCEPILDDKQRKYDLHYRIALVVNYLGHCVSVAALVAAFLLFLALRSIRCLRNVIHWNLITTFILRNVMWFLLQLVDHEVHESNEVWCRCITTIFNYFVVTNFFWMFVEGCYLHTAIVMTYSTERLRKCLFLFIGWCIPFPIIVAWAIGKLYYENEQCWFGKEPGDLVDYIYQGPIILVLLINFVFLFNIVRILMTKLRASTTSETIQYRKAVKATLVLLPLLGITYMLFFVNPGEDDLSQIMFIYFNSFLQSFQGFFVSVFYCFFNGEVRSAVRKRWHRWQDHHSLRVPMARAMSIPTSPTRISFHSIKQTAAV
# T9 sequence (P24387 whole entry): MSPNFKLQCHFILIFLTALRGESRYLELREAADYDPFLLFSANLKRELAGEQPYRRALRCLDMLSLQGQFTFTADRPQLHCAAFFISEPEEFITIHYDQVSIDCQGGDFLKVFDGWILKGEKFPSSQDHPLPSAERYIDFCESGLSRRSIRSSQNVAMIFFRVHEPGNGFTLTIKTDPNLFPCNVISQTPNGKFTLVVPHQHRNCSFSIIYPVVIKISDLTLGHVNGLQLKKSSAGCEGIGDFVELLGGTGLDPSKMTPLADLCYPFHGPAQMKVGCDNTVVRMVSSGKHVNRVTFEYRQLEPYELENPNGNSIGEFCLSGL
# [19] = target: T9, Corticotropin-releasing factor receptor 2/Corticotropin-releasing factor-binding protein; test: activators of CRF receptor 2 with binding protein – uHTS hits, confirmation (AID 602473); assay type: functional; conditions: read-out: EC50_Mean
# T4 sequence (P11940 whole entry): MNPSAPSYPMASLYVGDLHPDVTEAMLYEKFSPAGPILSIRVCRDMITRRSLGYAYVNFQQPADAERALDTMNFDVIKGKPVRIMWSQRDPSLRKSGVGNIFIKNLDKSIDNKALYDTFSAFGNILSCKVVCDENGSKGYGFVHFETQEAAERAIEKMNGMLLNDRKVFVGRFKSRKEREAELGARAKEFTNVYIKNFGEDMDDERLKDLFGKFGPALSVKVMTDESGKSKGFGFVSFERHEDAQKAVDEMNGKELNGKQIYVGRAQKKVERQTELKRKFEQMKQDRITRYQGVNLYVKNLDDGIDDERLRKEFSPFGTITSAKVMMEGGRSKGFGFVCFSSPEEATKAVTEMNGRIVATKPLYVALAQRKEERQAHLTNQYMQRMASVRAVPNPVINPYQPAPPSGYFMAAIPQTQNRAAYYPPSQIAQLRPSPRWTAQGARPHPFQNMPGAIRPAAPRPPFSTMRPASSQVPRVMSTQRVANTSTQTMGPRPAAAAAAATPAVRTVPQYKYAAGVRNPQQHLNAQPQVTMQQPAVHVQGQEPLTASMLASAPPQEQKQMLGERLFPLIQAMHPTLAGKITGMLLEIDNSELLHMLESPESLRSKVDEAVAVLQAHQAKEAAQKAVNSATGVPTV
# Chain of Nucleotide-binding oligomerization domain-containing protein 2 (Q9HC29 whole entry, the tested form may be a part): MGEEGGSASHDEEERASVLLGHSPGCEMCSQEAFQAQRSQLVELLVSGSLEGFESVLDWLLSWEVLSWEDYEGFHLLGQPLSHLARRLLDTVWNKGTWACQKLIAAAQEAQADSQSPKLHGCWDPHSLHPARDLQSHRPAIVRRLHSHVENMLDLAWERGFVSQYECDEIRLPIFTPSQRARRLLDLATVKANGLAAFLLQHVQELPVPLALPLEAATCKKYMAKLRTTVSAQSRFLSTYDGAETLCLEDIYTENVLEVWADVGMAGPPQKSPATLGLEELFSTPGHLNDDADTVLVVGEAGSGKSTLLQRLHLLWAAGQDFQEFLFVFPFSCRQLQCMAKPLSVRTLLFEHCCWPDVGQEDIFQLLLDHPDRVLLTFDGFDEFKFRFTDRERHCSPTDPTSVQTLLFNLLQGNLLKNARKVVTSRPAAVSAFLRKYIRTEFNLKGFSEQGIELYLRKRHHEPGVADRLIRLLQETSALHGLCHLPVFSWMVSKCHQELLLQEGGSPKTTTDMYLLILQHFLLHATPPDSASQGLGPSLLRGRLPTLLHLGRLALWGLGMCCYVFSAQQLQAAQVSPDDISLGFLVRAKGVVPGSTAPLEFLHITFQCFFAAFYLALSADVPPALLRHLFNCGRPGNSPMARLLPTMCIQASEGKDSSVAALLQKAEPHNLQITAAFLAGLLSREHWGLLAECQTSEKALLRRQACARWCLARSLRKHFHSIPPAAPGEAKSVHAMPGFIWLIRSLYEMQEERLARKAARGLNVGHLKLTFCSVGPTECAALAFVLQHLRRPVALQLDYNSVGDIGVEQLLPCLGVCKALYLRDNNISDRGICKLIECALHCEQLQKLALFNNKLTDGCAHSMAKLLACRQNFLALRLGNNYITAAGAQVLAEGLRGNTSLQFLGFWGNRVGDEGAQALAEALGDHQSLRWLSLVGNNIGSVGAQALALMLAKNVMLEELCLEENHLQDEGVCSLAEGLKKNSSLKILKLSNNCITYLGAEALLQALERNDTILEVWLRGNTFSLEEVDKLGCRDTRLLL
# T8 sequence (P41145 whole entry): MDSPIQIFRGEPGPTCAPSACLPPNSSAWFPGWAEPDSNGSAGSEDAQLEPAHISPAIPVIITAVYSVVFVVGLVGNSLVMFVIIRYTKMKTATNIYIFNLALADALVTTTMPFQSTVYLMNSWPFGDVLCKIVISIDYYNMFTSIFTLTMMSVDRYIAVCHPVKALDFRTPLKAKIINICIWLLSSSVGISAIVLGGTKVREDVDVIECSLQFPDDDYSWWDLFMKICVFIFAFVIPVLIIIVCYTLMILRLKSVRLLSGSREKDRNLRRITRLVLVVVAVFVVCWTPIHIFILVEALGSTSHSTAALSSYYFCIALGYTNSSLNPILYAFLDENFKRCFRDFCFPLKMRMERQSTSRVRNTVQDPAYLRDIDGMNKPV
# Chain of Beta-galactosidase (Q8VNN2 whole entry): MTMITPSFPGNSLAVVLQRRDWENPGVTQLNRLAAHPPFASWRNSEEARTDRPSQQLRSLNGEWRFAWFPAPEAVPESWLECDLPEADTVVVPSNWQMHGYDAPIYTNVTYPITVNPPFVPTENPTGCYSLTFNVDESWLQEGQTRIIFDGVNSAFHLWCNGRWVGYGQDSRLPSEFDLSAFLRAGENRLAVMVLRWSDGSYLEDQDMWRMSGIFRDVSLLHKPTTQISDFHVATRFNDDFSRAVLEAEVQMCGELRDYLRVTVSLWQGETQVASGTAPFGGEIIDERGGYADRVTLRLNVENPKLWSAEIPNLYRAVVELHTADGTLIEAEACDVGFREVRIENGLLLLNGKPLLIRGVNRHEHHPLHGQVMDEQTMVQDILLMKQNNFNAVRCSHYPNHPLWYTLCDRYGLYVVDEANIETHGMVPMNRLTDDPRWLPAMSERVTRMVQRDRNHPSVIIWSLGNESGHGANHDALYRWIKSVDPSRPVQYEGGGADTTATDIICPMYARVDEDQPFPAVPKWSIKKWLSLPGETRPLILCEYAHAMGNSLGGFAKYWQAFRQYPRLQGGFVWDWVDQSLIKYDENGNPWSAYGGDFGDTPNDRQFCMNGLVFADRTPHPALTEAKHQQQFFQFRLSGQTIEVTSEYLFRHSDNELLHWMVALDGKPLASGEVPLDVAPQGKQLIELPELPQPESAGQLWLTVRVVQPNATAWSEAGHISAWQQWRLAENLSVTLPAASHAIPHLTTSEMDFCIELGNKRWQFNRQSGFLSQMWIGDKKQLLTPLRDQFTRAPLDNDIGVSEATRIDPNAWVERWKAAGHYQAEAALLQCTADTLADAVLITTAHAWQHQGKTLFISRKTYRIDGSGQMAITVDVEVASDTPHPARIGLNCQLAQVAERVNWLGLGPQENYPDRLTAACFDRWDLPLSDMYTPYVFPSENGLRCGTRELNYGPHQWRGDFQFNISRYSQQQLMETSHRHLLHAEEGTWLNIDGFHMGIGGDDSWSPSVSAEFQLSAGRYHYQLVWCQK
# Chain of DNA damage-inducible transcript 3 protein (P35639 whole entry): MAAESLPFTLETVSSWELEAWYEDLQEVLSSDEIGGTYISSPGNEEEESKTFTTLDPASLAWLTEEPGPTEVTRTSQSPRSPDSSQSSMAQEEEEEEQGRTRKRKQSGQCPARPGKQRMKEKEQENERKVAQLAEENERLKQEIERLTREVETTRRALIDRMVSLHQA
# Chain of Cytochrome P450 2C9 (P11712 whole entry): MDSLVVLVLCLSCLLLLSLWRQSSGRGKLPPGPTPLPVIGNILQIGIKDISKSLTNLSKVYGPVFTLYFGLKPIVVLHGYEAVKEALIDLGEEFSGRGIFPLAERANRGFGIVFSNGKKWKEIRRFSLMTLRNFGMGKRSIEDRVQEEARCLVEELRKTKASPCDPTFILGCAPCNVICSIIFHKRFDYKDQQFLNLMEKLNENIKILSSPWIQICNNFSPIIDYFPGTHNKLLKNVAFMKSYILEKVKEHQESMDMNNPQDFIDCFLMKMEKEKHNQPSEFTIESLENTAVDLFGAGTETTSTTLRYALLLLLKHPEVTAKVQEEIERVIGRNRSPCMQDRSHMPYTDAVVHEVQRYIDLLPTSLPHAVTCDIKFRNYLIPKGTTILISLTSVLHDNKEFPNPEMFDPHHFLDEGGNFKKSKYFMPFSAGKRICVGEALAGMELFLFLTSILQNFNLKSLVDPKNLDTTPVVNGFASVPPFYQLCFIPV
smiles,measurement,setting,value
Cc1ccc(-c2nn(C)c(=O)c3ccccc23)cc1CNC(=O)Cn1nc(-c2ccccc2)c2ccccc2c1=O,Absolute IC50 (XBP1),X-box-binding protein 1,10 µM
same,AC50,Cytochrome P450 1A2,31.6 µM (inconclusive)
same,AC50,Cytochrome P450 2C9,11.2 µM (inconclusive)
same,Absolute IC50 (CHOP),[1],10 µM
Cc1ccccc1NC(=N)Nc1ccccc1C,IC50,[2],5.2 µM (active)
same,IC50,[3],> 66 µM (inactive)
same,IC50,Protein Rev,8.31 µM (active)
same,IC50,[4],19.8 µM (active)
CCc1ccc(C(=O)OCC(=O)c2c(N)n(CC(C)C)c(=O)n(C)c2=O)cc1,IC50,HEK293 [5],8.39 µM (active)
same,EC50,HEK293 [6],12.4 µM (active)
same,EC50,[7],> 20 µM (inactive)
same,IC50,HEK293 [8],15.6 µM (inactive)
same,IC50,HEK293 [9],13.8 µM (active)
same,IC50,HEK293 [10],> 20 µM (inactive)
same,IC50,[11],2.96 µM (not active)
CC(=O)Nc1ccc2nc3ccccc3nc2c1,IC50,[2],5.86 µM (active)
same,IC50,[3],> 66 µM (inactive)
same,IC50,Protein Rev,14.8 µM (not active)
same,IC50,[4],44.9 µM (inactive)
C(=N\Nc1ncnc2sc3c(c12)CCC3)/c1cccs1,Absolute IC50 (XBP1),X-box-binding protein 1,10 µM
same,AC50,[12],5.38 µM (active)
same,AC50,INS1,5.3 µM (active)
same,EC50,Streptokinase A,> 150 µM (not active)
same,EC50,[13],15.8 µM (active)
same,EC50,Streptococcus,19.5 µM (active)
same,CC50,[14],15.7 µM (active)
O=C(C#Cc1ccccc1)c1ccc([N+](=O)[O-])cc1,IC50,[15],9.68 µM (active)
same,EC50,Beta-galactosidase,> 31.5 µM (inactive)
same,AC50,[16],1.38 µM (active)
same,IC50,[17],16.3 µM
Cc1nc2ccc(NS(=O)(=O)c3ccc(C)c(C)c3)cc2s1,IC50,HEK293 [5],10.9 µM (active)
same,EC50,HEK293 [6],3.65 µM (active)
same,EC50,[7],9.53 µM (active)
same,IC50,HEK293 [8],10.4 µM (inactive)
same,IC50,[18],> 47.1 µM (inactive)
same,EC50,[19],> 53 µM (inactive)
same,IC50,HEK293 [9],> 20 µM (inactive)
same,IC50,HEK293 [10],> 20 µM (inactive)
